The values below come from publication PMC9786170, “The Pharmacological Potential of Novel Melittin Variants from the Honeybee and Solitary Bees against Inflammation and Cancer” (Toxins, 2022).

“Also recorded” adds a separate entry of the source.

Series [1] relates to TNF-activated EC monolayer. Description: Adhesion of THP-1 leukocytes onto TNF-activated endothelial cells. The conditions noted are these: peptide 30 min, TNF 10 ng/mL 24 h, THP-1 adhesion 5 min, static, fluorescence, n = 2. The format is cell-based, human. As for the experimental part:
(§1) Figure 4 Influence of melittin derivates on inflammation-associated cell functions. (A,B) For the NO induction assay (A), RAW264.7 cells were treated with melittin peptides in the indicated concentrations for 24 h. For the NO inhibition assay (B), RAW264.7 cells were pretreated with melittin peptides in the indicated concentrations for 30 min and then stimulated with 100 ng/mL LPS for 24 h. NO was detected in the supernatant using the Griess method. […] THP-1 cell adhesion under static conditions. HUVECs were grown to confluence, preincubated with bee venoms for 30 min, and activated with TNF (10 ng/mL) for 24 h. For the leukocyte adhesion assay, untreated THP-1 cells were stained with CellTracker Green and were allowed to adhere to the treated HUVECs for 5 min. The adhesion of leukocytes onto Ecs was quantified by fluorescence measurements for all cell adhesion experiments. Data are expressed as means ± SEM, (A,B) n = 3, (C) n = 2. * p ≤ 0.05 vs. TNF (positive) control.
For the investigation of leukocyte adhesion under static conditions, HMEC-1 cells were seeded into 96-well plates and cultured until they became confluent. […] Then, the fluorescence signal from adherent THP-1 cells was measured by a Tecan Infinite F200 Pro microplate reader (Tecan, Männedorf, Switzerland) (excitation: 485 nm, emission: 535 nm).

For a further series, the system named is HEK293T cells. Description: Ca2+ induction assay (Fluo-8). It counts as cell-based, human. The conditions noted are these: Fluo-8, 0.25, 2.5, 25 µg/mL, partly already at 2.5 µg/mL, n = 4. As for the experimental part: Figure 2 Melittin derivates influence cellular Ca^2+ and IP1 levels. (A) For the Ca^2+ induction assay, Fluo-8 pretreated HEK293-T cells were incubated with melittin derivates in the indicated concentrations and the fluorescence was detected. (B) For the Ca^2+ inhibition assay, Fluo-8 pretreated HEK293-T cells were incubated with peptides in the indicated concentrations for 30 min, stimulated with 5 µM ionomycin, and the fluorescence was detected. (C) IP3 has a short lifetime and is rapidly degraded to IP1; therefore, IP1 was determined. For the IP1/IP3 induction assay (left panel), HEK293T cells were incubated with melittin peptides in the indicated concentration for 2 h, a detection reagent was added, and the fluorescence resonance energy transfer signal was detected. For the IP1/IP3 inhibition assay (right panel), HEK293T cells were incubated with melittin peptides in the indicated concentration for 30 min and stimulated with 20 µM ionomycin for 1.5 h. After the addition of the detection reagent, the fluorescence resonance energy transfer signal was detected. Data are expressed as mean ± SEM. (A, B, C (left)) n = 4, (C (right)) n = 3. * p ≤ 0.05 versus control.
For analysis, 5 × 10^4 HEK293 cells or 2 × 10^4 MDA-MB-231 cells were seeded in a 96-well poly-D-lysine plate, incubated at 37 °C for 24 h, and treated with 4 µM Fluo-8-AM in HBSS for 1 h at 37 °C. After 1 h, the Fluo-8/HBSS was replaced by 100 µL HBSS. Five images per second were taken using an ImageXpress Micro Confocal High Content Imaging System (Molecular Device, San Jose, CA, USA). Melittin peptides (0.25, 2.5, and 25 µg/mL), DMSO (negative control), or 5 µM ionomycin (Sigma Aldrich; Taufkirchen, Germany) (positive control) were added to the cells. For the next 20 s, an image was obtained every second. For the inhibition assay, the peptide-treated samples (30 min) were treated with 5 µM ionomycin and for the next 20 s, an image was obtained every second. The data were analyzed with the MetaXpress Software Version 6 (Molecular Devices, San Jose, CA, USA). A threshold of fluorescence intensity was defined using cells before treatment, and all cells with a fluorescence signal above the threshold level were counted. For the induction assay, the number of cells above the threshold in the toxin-treated samples were related to the cells in the DMSO-treated sample. For the inhibition assay, the number of cells above the threshold in the melittin-treated samples were related to the cells in the ionomycin-treated sample.

The test system of a further series is RAW264.7 cells. The series can be described thus: NO inhibition assay (LPS-stimulated, Griess). It counts as cell-based, murine. As to conditions: RAW264.7, peptide 30 min, then 100 ng/mL LPS 24 h. As for the experimental part:
as §1
2 × 10^4 RAW264.7 macrophages/well were plated in a 96-well plate and cultured for 24 h at 37 °C. To investigate if the melittin peptides induce nitrogen oxide (NO) synthesis, the melittin peptides, control (DMSO), and positive control (100 ng/mL lipopolysaccharide (LPS)) were added. To evaluate the effect of melittin peptides on inhibiting NO synthesis, the cells were pre-incubated with peptides or control (DMSO) for 30 min before 100 ng/mL LPS were added. After 24 h supernatants were collected and stored at −80 °C.
NO was determined with the Griess method. Briefly, for the standard curve, different concentrations of sodium nitrite (0–50 µM) were prepared in the medium. A total of 80 µL cell supernatant or standard sample were added to a 96-well microplate and subsequently, 20 µL sulfanilamide solution (120 mg sulfanilamide in 30 mL 1 N hydrochloric acid) and 20 µL naphthylenediamine solution (180 mg N-(1-naphthyl)ethylenediamine dihydrochloride in 30 mL water) were added. After 15 min of incubation, the absorbance (540 nm) was measured with the EnSpire Plate Reader (PerkinElmer, Waltham, MA, USA). For the induction assay, the NO levels of the melittin peptides-treated samples were related to the DMSO-treated sample. For the inhibition assay, the NO levels of the melittin peptides-treated cells were correlated with the LPS-treated samples.
For orientation: The Griess reaction detects nitrite, a stable product of nitric oxide.

For series [2] the following is noted: cited from earlier work. The source says:
Therefore, the identification of biologically active derivatives of melittins with minimal toxicity to healthy cells is important for developing new pharmacological treatment options. In this study, we applied a broad in vitro screening approach of melittin variants from the honeybee and earlier solitary bee lineages to assess whether these ...

Take xylopin [Xac4]: in series [1], the “adhesion of THP-1 leukocytes onto endothelial cells” value is recorded as “reducing the inflammation-associated interaction of endothelial cells with leukocytes”. Besides, the “induction of Ca2+ release” value with HEK293T cells was “induce Ca^2+ release”. The “inhibition of LPS-induced NO synthesis” value in the series on RAW264.7 cells (n = 3) was “prevented LPS-induced NO synthesis in a concentration-dependent manner; also recorded: reducing the inflammation-associated interaction of endothelial cells with leukocytes and NO synthesis”.

For the substance melittin [Melt, reference compound], the “induction of Ca2+ release” value with HEK293T cells is “induced a significant release of Ca^2+; also recorded: induce Ca^2+ release”. Also, the “inhibition of LPS-induced NO synthesis” value was “prevent the LPS-induced NO release” with RAW264.7 cells (n = 3, listed as Melittin) and “prevented LPS-induced NO synthesis in a concentration-dependent manner” in the series on RAW264.7 cells (n = 3, listed as melittin). In series [2], the “degradation in the blood” value is given as “fast degradation in the blood”.
